Source: PubChem BioAssay AID1963844 (Molecular Pharmacology Branch, DTP, NCI, 2024)

System: 422866-222-R5-J1-PDC complex spheroid viability
Experiment: Anticancer human tumor 422866-222-R5-J1-PDC patient-derived pancreatic adenocarcinoma cell line growth inhibition [POLQ]
Details: for IC50: curve of first compound; for viability, T/C: stronger effect = lower value
Outline: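 Three-cell-type spheroids modelling solid tumor plus stroma served as the readout system; POL inhibitors were tested individually and in combination, concentration ranges set by clinical Cmax where known.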

[1] = second compound 0.0316 µM, first compound 0.0316 µM
[2] = second compound 0.0316 µM, first compound 0.1 µM
[3] = second compound 0.1 µM, first compound 0.0316 µM
[4] = second compound 0.1 µM, first compound 0.1 µM
[5] = second compound 0.316 µM, first compound 0.0316 µM
[6] = second compound 0.316 µM, first compound 0.1 µM
[7] = second compound 1 µM, first compound 0.0316 µM
[8] = second compound 1 µM, first compound 0.1 µM
[9] = second compound 3.16 µM, first compound 0.0316 µM
[10] = second compound 3.16 µM, first compound 0.1 µM
[11] = second compound 10 µM, first compound 0.0316 µM
[12] = second compound 10 µM, first compound 0.1 µM
[13] = second compound 0.0316 µM, first compound 0.316 µM
[14] = second compound 0.0316 µM, first compound 1 µM
[15] = second compound 0.0316 µM, first compound 3.16 µM
[16] = second compound 0.0316 µM, first compound 10 µM
[17] = second compound 0.1 µM, first compound 0.316 µM
[18] = second compound 0.1 µM, first compound 1 µM
[19] = second compound 0.1 µM, first compound 3.16 µM
[20] = second compound 0.1 µM, first compound 10 µM
[21] = second compound 0.316 µM, first compound 0.316 µM
[22] = second compound 0.316 µM, first compound 1 µM
[23] = second compound 0.316 µM, first compound 3.16 µM
[24] = second compound 0.316 µM, first compound 10 µM
[25] = second compound 1 µM, first compound 0.316 µM
[26] = second compound 1 µM, first compound 1 µM
[27] = second compound 1 µM, first compound 3.16 µM
[28] = second compound 1 µM, first compound 10 µM
[29] = second compound 3.16 µM, first compound 0.316 µM
[30] = second compound 3.16 µM, first compound 1 µM
[31] = second compound 3.16 µM, first compound 3.16 µM
[32] = second compound 3.16 µM, first compound 10 µM
[33] = second compound 10 µM, first compound 0.316 µM
[34] = second compound 10 µM, first compound 1 µM
[35] = second compound 10 µM, first compound 3.16 µM
[36] = second compound 10 µM, first compound 10 µM
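Further: spheroids exposed to compounds for one week before readout.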
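Wherever viability, T/C is given: percent of DMSO vehicle wells luminescence so 100% = untreated viability.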

SMILES: CC(=O)O[C@H]1C(=O)[C@@]2(C)[C@H]([C@H](OC(=O)c3ccccc3)[C@]3(O)C[C@H](OC(=O)[C@H](O)[C@@H](NC(=O)c4ccccc4)c4ccccc4)C(C)=C1C3(C)C)[C@]1(OC(C)=O)CO[C@@H]1C[C@@H]2O + COC1C(OC(N)=O)C(O)C(Oc2ccc3c(O)c(NC(=O)c4ccc(O)c(CC=C(C)C)c4)c(=O)oc3c2C)OC1(C)C
- IC50 (second compound 0.0316 µM): > 3000 nM
- IC50 (second compound 0.1 µM): > 3000 nM
- IC50 (second compound 0.316 µM): > 3000 nM
- IC50 (second compound 1 µM): > 3000 nM
- IC50 (second compound 3.16 µM): > 3000 nM
- IC50 (second compound 10 µM): > 3000 nM
- viability, T/C (second compound 0.0316 µM, first compound 0.00949 µM): 64.8%
- viability, T/C (second compound 0.0316 µM, first compound 0.03 µM): 57.2%
- viability, T/C (second compound 0.0316 µM, first compound 0.0949 µM): 61.5%
- viability, T/C (second compound 0.0316 µM, first compound 0.3 µM): 59.5%
- viability, T/C (second compound 0.0316 µM, first compound 0.949 µM): 64.7%
- viability, T/C (second compound 0.0316 µM, first compound 3 µM): 80.4%
- viability, T/C (second compound 0.1 µM, first compound 0.00949 µM): 71.6%
- viability, T/C (second compound 0.1 µM, first compound 0.03 µM): 67.4%
- viability, T/C (second compound 0.1 µM, first compound 0.0949 µM): 66%
- viability, T/C (second compound 0.1 µM, first compound 0.3 µM): 67%
- viability, T/C (second compound 0.1 µM, first compound 0.949 µM): 69.1%
- viability, T/C (second compound 0.1 µM, first compound 3 µM): 78.8%
- viability, T/C (second compound 0.316 µM, first compound 0.00949 µM): 67%
- viability, T/C (second compound 0.316 µM, first compound 0.03 µM): 63.5%
- viability, T/C (second compound 0.316 µM, first compound 0.0949 µM): 54.6%
- viability, T/C (second compound 0.316 µM, first compound 0.3 µM): 65.1%
- viability, T/C (second compound 0.316 µM, first compound 0.949 µM): 70.7%
- viability, T/C (second compound 0.316 µM, first compound 3 µM): 84.5%
- viability, T/C (second compound 1 µM, first compound 0.00949 µM): 62.1%
- viability, T/C (second compound 1 µM, first compound 0.03 µM): 54.9%
- viability, T/C (second compound 1 µM, first compound 0.0949 µM): 61.4%
- viability, T/C (second compound 1 µM, first compound 0.3 µM): 56.3%
- viability, T/C (second compound 1 µM, first compound 0.949 µM): 59.6%
- viability, T/C (second compound 1 µM, first compound 3 µM): 81.1%
- viability, T/C (second compound 3.16 µM, first compound 0.00949 µM): 66.8%
- viability, T/C (second compound 3.16 µM, first compound 0.03 µM): 52.9%
- viability, T/C (second compound 3.16 µM, first compound 0.0949 µM): 55.3%
- viability, T/C (second compound 3.16 µM, first compound 0.3 µM): 54%
- viability, T/C (second compound 3.16 µM, first compound 0.949 µM): 75%
- viability, T/C (second compound 3.16 µM, first compound 3 µM): 86.7%
- viability, T/C (second compound 10 µM, first compound 0.00949 µM): 63.7%
- viability, T/C (second compound 10 µM, first compound 0.03 µM): 60.6%
- viability, T/C (second compound 10 µM, first compound 0.0949 µM): 60.3%
- viability, T/C (second compound 10 µM, first compound 0.3 µM): 61.5%
- viability, T/C (second compound 10 µM, first compound 0.949 µM): 72%
- viability, T/C (second compound 10 µM, first compound 3 µM): 91.9%

SMILES: CC[C@@]1(O)C(=O)OCc2c1cc1n(c2=O)Cc2cc3c(CN(C)C)c(O)ccc3nc2-1 + COC1C(OC(N)=O)C(O)C(Oc2ccc3c(O)c(NC(=O)c4ccc(O)c(CC=C(C)C)c4)c(=O)oc3c2C)OC1(C)C
- IC50 (second compound 0.0316 µM): 22.9 nM
- IC50 (second compound 0.1 µM): 21.6 nM
- IC50 (second compound 0.316 µM): 23.3 nM
- IC50 (second compound 1 µM): 20.7 nM
- IC50 (second compound 3.16 µM): 26 nM
- IC50 (second compound 10 µM): 22.4 nM
- viability, T/C (second compound 0.0316 µM, first compound 0.000316 µM): 105%
- viability, T/C (second compound 0.0316 µM, first compound 0.001 µM): 92.5%
- viability, T/C (second compound 0.0316 µM, first compound 0.00316 µM): 96.7%
- viability, T/C (second compound 0.0316 µM, first compound 0.01 µM): 77%
- viability, T/C [1]: 39.2%
- viability, T/C [2]: 32.7%
- viability, T/C (second compound 0.1 µM, first compound 0.000316 µM): 92.1%
- viability, T/C (second compound 0.1 µM, first compound 0.001 µM): 96.3%
- viability, T/C (second compound 0.1 µM, first compound 0.00316 µM): 99.4%
- viability, T/C (second compound 0.1 µM, first compound 0.01 µM): 77.8%
- viability, T/C [3]: 32.3%
- viability, T/C [4]: 40.1%
- viability, T/C (second compound 0.316 µM, first compound 0.000316 µM): 113%
- viability, T/C (second compound 0.316 µM, first compound 0.001 µM): 97.9%
- viability, T/C (second compound 0.316 µM, first compound 0.00316 µM): 85.4%
- viability, T/C (second compound 0.316 µM, first compound 0.01 µM): 69.1%
- viability, T/C [5]: 37.3%
- viability, T/C [6]: 39.4%
- viability, T/C (second compound 1 µM, first compound 0.000316 µM): 106%
- viability, T/C (second compound 1 µM, first compound 0.001 µM): 92.3%
- viability, T/C (second compound 1 µM, first compound 0.00316 µM): 92%
- viability, T/C (second compound 1 µM, first compound 0.01 µM): 61.8%
- viability, T/C [7]: 43.1%
- viability, T/C [8]: 35.6%
- viability, T/C (second compound 3.16 µM, first compound 0.000316 µM): 96.4%
- viability, T/C (second compound 3.16 µM, first compound 0.001 µM): 105%
- viability, T/C (second compound 3.16 µM, first compound 0.00316 µM): 90.9%
- viability, T/C (second compound 3.16 µM, first compound 0.01 µM): 71.5%
- viability, T/C [9]: 45.3%
- viability, T/C [10]: 37.8%
- viability, T/C (second compound 10 µM, first compound 0.000316 µM): 93.8%
- viability, T/C (second compound 10 µM, first compound 0.001 µM): 95.2%
- viability, T/C (second compound 10 µM, first compound 0.00316 µM): 83.2%
- viability, T/C (second compound 10 µM, first compound 0.01 µM): 71.6%
- viability, T/C [11]: 39.8%
- viability, T/C [12]: 30.8%

SMILES: COc1cccc2c1C(=O)c1c(O)c3c(c(O)c1C2=O)CC(O)(C(=O)CO)CC3OC1CC(N)C(O)C(C)O1 (stereo not drawn) + COC1C(OC(N)=O)C(O)C(Oc2ccc3c(O)c(NC(=O)c4ccc(O)c(CC=C(C)C)c4)c(=O)oc3c2C)OC1(C)C
- IC50 (second compound 0.0316 µM): 242 nM
- IC50 (second compound 0.1 µM): 225 nM
- IC50 (second compound 0.316 µM): 236 nM
- IC50 (second compound 1 µM): 250 nM
- IC50 (second compound 3.16 µM): 217 nM
- IC50 (second compound 10 µM): 224 nM
- viability, T/C [1]: 60.2%
- viability, T/C [2]: 110%
- viability, T/C [13]: 39.3%
- viability, T/C [14]: 29.7%
- viability, T/C [15]: 30%
- viability, T/C [16]: 35.5%
- viability, T/C [3]: 75.5%
- viability, T/C [4]: 94.4%
- viability, T/C [17]: 35.4%
- viability, T/C [18]: 25.3%
- viability, T/C [19]: 28.9%
- viability, T/C [20]: 33.3%
- viability, T/C [5]: 67.5%
- viability, T/C [6]: 102%
- viability, T/C [21]: 38.1%
- viability, T/C [22]: 26.9%
- viability, T/C [23]: 26.9%
- viability, T/C [24]: 30.9%
- viability, T/C [7]: 71.2%
- viability, T/C [8]: 104%
- viability, T/C [25]: 40.3%
- viability, T/C [26]: 21.8%
- viability, T/C [27]: 26.9%
- viability, T/C [28]: 29.5%
- viability, T/C [9]: 54.5%
- viability, T/C [10]: 107%
- viability, T/C [29]: 35%
- viability, T/C [30]: 23.9%
- viability, T/C [31]: 25.6%
- viability, T/C [32]: 38.9%
- viability, T/C [11]: 56.1%
- viability, T/C [12]: 106%
- viability, T/C [33]: 36.8%
- viability, T/C [34]: 26.7%
- viability, T/C [35]: 28.9%
- viability, T/C [36]: 29.8%

SMILES: O=c1[nH]cc(F)c(=O)[nH]1 + COC1C(OC(N)=O)C(O)C(Oc2ccc3c(O)c(NC(=O)c4ccc(O)c(CC=C(C)C)c4)c(=O)oc3c2C)OC1(C)C
- IC50 (second compound 0.0316 µM): > 10000 nM
- IC50 (second compound 0.1 µM): > 10000 nM
- IC50 (second compound 0.316 µM): > 10000 nM
- IC50 (second compound 1 µM): > 10000 nM
- IC50 (second compound 3.16 µM): > 10000 nM
- IC50 (second compound 10 µM): > 10000 nM
- viability, T/C [1]: 103%
- viability, T/C [2]: 99.7%
- viability, T/C [13]: 102%
- viability, T/C [14]: 98.9%
- viability, T/C [15]: 82.7%
- viability, T/C [16]: 78.5%
- viability, T/C [3]: 109%
- viability, T/C [4]: 116%
- viability, T/C [17]: 99.7%
- viability, T/C [18]: 82.9%
- viability, T/C [19]: 82.5%
- viability, T/C [20]: 79%
- viability, T/C [5]: 109%
- viability, T/C [6]: 105%
- viability, T/C [21]: 93.5%
- viability, T/C [22]: 92.1%
- viability, T/C [23]: 84.8%
- viability, T/C [24]: 84%
- viability, T/C [7]: 107%
- viability, T/C [8]: 108%
- viability, T/C [25]: 93.2%
- viability, T/C [26]: 90.5%
- viability, T/C [27]: 72.2%
- viability, T/C [28]: 80.8%
- viability, T/C [9]: 98%
- viability, T/C [10]: 94.1%
- viability, T/C [29]: 102%
- viability, T/C [30]: 89.2%
- viability, T/C [31]: 81.8%
- viability, T/C [32]: 82.5%
- viability, T/C [11]: 103%
- viability, T/C [12]: 98%
- viability, T/C [33]: 99.9%
- viability, T/C [34]: 79.9%
- viability, T/C [35]: 77.7%
- viability, T/C [36]: 81.4%
